Values quoted from earlier work as cited in US20250283018A1, “TOILET RIM BLOCKS WITH SCENT CHANGE” (SYMRISE AG, priority 2021, published 2025).
Read-outs that look alike come from different tables or passages of the source.

Columns and labels:
[1] = not given; remark: listed apart in the source
[2] = Table 3, components of POWER PLATIN

Compound	Bp. [° C.] [1, 2] [°C]	logP (list of selected fragrances)	Bp. [° C.] ([1]; list of selected fragrances) [°C]	logP (Table 1, components of MARINA)	Bp. [° C.] ([1]; Table 1, components of MARINA) [°C]	other results
c1ccc2[nH]ccc2c1 [INDOL FF]	254					logP (Table 2, components of PEACH): 2.05; logP [2]: 2.05; Bp. [° C.] ([1]; Table 2, components of PEACH): 254 °C
CC(=O)OCCC(C)C [ISOAMYLACETAT]						logP (Table 2, components of PEACH): 2.26; Bp. [° C.] ([1]; Table 2, components of PEACH): 143 °C
CCCC(=O)OCCC(C)C [ISOAMYLBUTYRAT]						logP (Table 2, components of PEACH): 3.25; Bp. [° C.] ([1]; Table 2, components of PEACH): 179 °C
CCC(C)=CCCC(C)=CC#N [LEMONILE]	249					logP [2]: 3.96
C=CC(C)(O)CCC=C(C)C (centres unmarked) [LINALOOL]	198					logP [2]: 3.38
Cc1ccc2c(c1)OCC(=O)CO2 [METHYLBENZODIOXEPINON]		1.8	289			
CCCCCCCCCCCCCCCCCC=O [OCTADECANAL]		1.83	250			
O=C1CCCCCCCCCCCCCCO1 [OMEGA PENTADECALACTONE]		5.35	341			
CCCCCCCCCCC=CC#N [OZONIL]				5.04	293	
CC1(C)C2CC=C(CCC=O)C1C2 (centres unmarked) [PINOACETALDEHYD]				3.76	242	
CC(C)=CCCC1=CCC(C)(C=O)CC1 (centres unmarked) [PRECYCLEMONE B]	267			5.19	267	logP [2]: 5.19
COC1CC2CC1C1CC(C=O)CC21 (centres unmarked) [SCENTENAL]				2.03	273	
CC1=CCC(=C(C)C)CC1 [TERPINOLEN DEXTRO]	197					logP [2]: 4.88
CCCCCCCCCCCCCC=O [TETRADECANAL]		2.89	286			
CC(C)CCCC(C)CCO (centres unmarked) [TETRAHYDROGERANIOL]	212			3.64	212	logP [2]: 3.64
CC1CCC(C(C)(C)S)C(=O)C1 (centres unmarked) [THIOMENTHANON-8,3]						logP (Table 2, components of PEACH): 2.78; Bp. [° C.] ([1]; Table 2, components of PEACH): 271 °C
CCCCCCCCCC(C)=O [UNDECANON-2]	231.5					logP [2]: 3.69
CC/C=C(\C)C(O)CCCCC (centres unmarked) [UNDECAVERTOL]				4.05	235	
CCCCCC1(C)CCC(C)(C)C1=O (centres unmarked) [VELOUTONE]						logP (Table 2, components of PEACH): 4.34; Bp. [° C.] ([1]; Table 2, components of PEACH): 247 °C
CC(=O)OC1CC2CC1C1CC=CC21 (centres unmarked) [VERDYL ACETATE]		2.36	260			
COC(=O)c1ccccc1N [[…]]	256	2.12	256		256	
CARYOPHYLLENACETAT		5.52	306	5.75	306	logP (Table 2, components of PEACH): 5.75; Bp. [° C.] ([1]; Table 2, components of PEACH): 306 °C
HERBYLPROPIONAT		2.89	276.15	3.68	276.15	
ISOBUTYLMENTHONE				2.94	211	
MENTHON L/ISOMENTHON D				2.87	204	
NEROL 900	228					logP [2]: 3.47
SPIRO[1,3-DIOXOLANE-2,5′-(4′,4′,8′,8′-TETRAMETHYL-HEXAHYDRO-3′,9′-MENTHANONAPHTHALENE)]		5.16	280			
